# In patent US9643970B2, “Substituted imidazo [1,5-a]pyrazines as PDE9 inhibitors” (H Lundbeck A/S, priority 2012, dated 2017):
# Where two headings read alike, the source gives them in different places.
# Target: PDE9 (Homo sapiens, UniProt O76083)
# Experiment: PDE9 inhibition assay
# Type: biochemical
# Method: Reactions are initiated by addition of the cyclic nucleotide substrate, and reactions are allowed to proceed for one hr at room temperature before being terminated through mixing with 15 uL 8 mg/mL yttrium silicate SPA beads (Amersham). […] IC50 values were calculated by non linear regression using XLfit (IDBS).
# [1] = SPA assay, 10 nM 3H-cAMP, 1 hour incubation, read-out: IC50
# Sequence of PDE9 (O76083 whole entry): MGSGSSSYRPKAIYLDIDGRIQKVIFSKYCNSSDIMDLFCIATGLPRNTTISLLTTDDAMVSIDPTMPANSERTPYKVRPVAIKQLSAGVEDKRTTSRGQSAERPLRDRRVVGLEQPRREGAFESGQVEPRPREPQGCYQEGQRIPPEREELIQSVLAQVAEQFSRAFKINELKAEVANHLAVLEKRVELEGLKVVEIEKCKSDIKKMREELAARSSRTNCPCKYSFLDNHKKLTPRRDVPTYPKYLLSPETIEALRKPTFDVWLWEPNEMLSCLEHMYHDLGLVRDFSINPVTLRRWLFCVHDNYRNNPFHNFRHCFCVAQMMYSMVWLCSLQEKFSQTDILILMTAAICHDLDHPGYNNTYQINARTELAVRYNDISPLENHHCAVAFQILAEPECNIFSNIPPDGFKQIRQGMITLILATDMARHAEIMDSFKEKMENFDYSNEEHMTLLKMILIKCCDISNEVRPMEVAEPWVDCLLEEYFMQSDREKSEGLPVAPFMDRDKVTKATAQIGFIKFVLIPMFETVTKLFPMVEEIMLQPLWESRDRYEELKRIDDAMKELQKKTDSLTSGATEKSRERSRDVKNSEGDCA
Compound,IC50 [1] [µM],IC50 [µM]
"N#Cc1cccc(OC2CN(Cc3cn4c(C5CCOCC5)ncc4c(=O)[nH]3)C2)c1 [Compound 94, 3-[1-[(8-oxo-3-tetrahydropyran-4-yl-7h-imidazo[1,5-a]pyrazin-6-yl)methyl]azetidin-3-yl]oxybenzonitrile]",–,0.012
"O=c1[nH]c(CN2CC(Oc3cccc(C(F)(F)F)c3)C2)cn2c(-c3ccc(F)cc3)ncc12 [Compound 95, 3-(4-fluorophenyl)-6-[[3-[3-(trifluoromethyl)phenoxy]azetidin-1-yl]methyl]-7h-imidazo[1,5-a]pyrazin-8-one]",–,0.097
"N#Cc1ccc(C2CN(Cc3cn4c(-c5ccc(F)cc5)ncc4c(=O)[nH]3)C2)cc1 [Compound 96, 4-[1-[[3-(4-fluorophenyl)-8-oxo-7h-imidazo[1,5-a]pyrazin-6-yl]methyl]azetidin-3-yl]benzonitrile]",–,0.002
"N#Cc1ccc(C2CN(Cc3cn4c(C5CCOCC5)ncc4c(=O)[nH]3)C2)cc1 [Compound 106, 4-[1-[(8-oxo-3-tetrahydropyran-4-yl-7h-imidazo[1,5-a]pyrazin-6-yl)methyl]azetidin-3-yl]benzonitrile]",0.032,–
"N#Cc1cccc(C2CN(Cc3cn4c(C5CCOCC5)ncc4c(=O)[nH]3)C2)c1 [Compound 107, 3-[1-[(8-oxo-3-tetrahydropyran-4-yl-7h-imidazo[1,5-a]pyrazin-6-yl)methyl]azetidin-3-yl]benzonitrile]",0.035,–
"O=c1[nH]c(CN2CC(OCc3ccc(Cl)cc3)C2)cn2c(-c3ccc(F)cc3)ncc12 [Compound 108, 6-[[3-[(4-chlorophenyl)methoxy]azetidin-1-yl]methyl]-3-(4-fluorophenyl)-7h-imidazo[1,5-a]pyrazin-8-one]",0.034,–
"O=c1[nH]c(CN2CC(Oc3ccc(C(F)(F)F)cc3)C2)cn2c(-c3ccc(F)cc3)ncc12 [Compound 109, 3-(4-fluorophenyl)-6-[[3-[4-(trifluoromethyl)phenoxy]azetidin-1-yl]methyl]-7h-imidazo[1,5-a]pyrazin-8-one]",0.028,–

# Continued, values first:
IC50 [1] [µM],IC50 [µM],Compound
0.018,–,"N#Cc1cccc(OC2CN(Cc3cn4c(-c5ccc(F)cc5)ncc4c(=O)[nH]3)C2)c1 [Compound 93, 3-[1-[[3-(4-fluorophenyl)-8-oxo-7h-imidazo[1,5-a]pyrazin-6-yl]methyl]azetidin-3-yl]oxybenzonitrile]"
0.004,–,"CC1CN(Cc2ccc3nccnc3c2)CC1c1cn2c(C3CCOCC3)ncc2c(=O)[nH]1 (centres unmarked) [Compound 97, 6-[4-methyl-1-(quinoxalin-6-ylmethyl)pyrrolidin-3-yl]-3-tetrahydropyran-4-yl-7h-imidazo[1,5-a]pyrazin-8-one]"
0.018,–,"CC1CN(Cc2ccc(C#N)cc2)CC1c1cn2c(C3CCOCC3)ncc2c(=O)[nH]1 (centres unmarked) [Compound 98, 4-[[3-methyl-4-(8-oxo-3-tetrahydropyran-4-yl-7h-imidazo[1,5-a]pyrazin-6-yl)pyrrolidin-1-yl]methyl]benzonitrile]"
0.017,–,"CC1CN(Cc2ccc(F)cc2)CC1c1cn2c(-c3ccc(F)cc3)ncc2c(=O)[nH]1 (centres unmarked) [Compound 99, 3-(4-fluorophenyl)-6-[1-[(4-fluorophenyl)methyl]-4-methyl-pyrrolidin-3-yl]-7h-imidazo[1,5-a]pyrazin-8-one]"
0.004,–,"CC1CN(Cc2ccc(F)cc2)CC1c1cn2c(-c3ccc(F)cc3)nc(Br)c2c(=O)[nH]1 (centres unmarked) [Compound 100, 1-bromo-3-(4-fluorophenyl)-6-[1-[(4-fluorophenyl)methyl]-4-methyl-pyrrolidin-3-yl]-7h-imidazo[1,5-a]pyrazin-8-one]"
0.018,–,"COc1ccc(CN2CC(C)C(c3cn4c(C5CCOCC5)ncc4c(=O)[nH]3)C2)cn1 (centres unmarked) [Compound 101, 6-[1-[(6-methoxy-3-pyridyl)methyl]-4-methyl-pyrrolidin-3-yl]-3-tetrahydropyran-4-yl-7h-imidazo[1,5-a]pyrazin-8-one]"
0.01,–,"Cc1cnc(CN2CC(C)C(c3cn4c(C5CCOCC5)ncc4c(=O)[nH]3)C2)cn1 (centres unmarked) [Compound 102, 6-[4-methyl-1-[(5-methylpyrazin-2-yl)methyl]pyrrolidin-3-yl]-3-tetrahydropyran-4-yl-7h-imidazo[1,5-a]pyrazin-8-one]"
